Reference: patent US11963946B2, “MDMA treatment to enhance acute emotional effects profile of LSD, psilocybin, or other psychedelics” (Universitätsspital Basel, priority 2020, dated 2024)
Several values for one entry are separate records, joined by “and”; a condition that tells them apart may be missing. Equal values may be shown once. Read-outs that look alike come from different tables or passages of the source.

Assays:
5-HT transporter (SERT) = 5-HT transporter (SERT) (Homo sapiens, UniProt P31645); conditions: Rickli et al., 2016; cited from earlier work
Chain of 5-HT transporter (SERT) (P31645 whole entry, species assumed): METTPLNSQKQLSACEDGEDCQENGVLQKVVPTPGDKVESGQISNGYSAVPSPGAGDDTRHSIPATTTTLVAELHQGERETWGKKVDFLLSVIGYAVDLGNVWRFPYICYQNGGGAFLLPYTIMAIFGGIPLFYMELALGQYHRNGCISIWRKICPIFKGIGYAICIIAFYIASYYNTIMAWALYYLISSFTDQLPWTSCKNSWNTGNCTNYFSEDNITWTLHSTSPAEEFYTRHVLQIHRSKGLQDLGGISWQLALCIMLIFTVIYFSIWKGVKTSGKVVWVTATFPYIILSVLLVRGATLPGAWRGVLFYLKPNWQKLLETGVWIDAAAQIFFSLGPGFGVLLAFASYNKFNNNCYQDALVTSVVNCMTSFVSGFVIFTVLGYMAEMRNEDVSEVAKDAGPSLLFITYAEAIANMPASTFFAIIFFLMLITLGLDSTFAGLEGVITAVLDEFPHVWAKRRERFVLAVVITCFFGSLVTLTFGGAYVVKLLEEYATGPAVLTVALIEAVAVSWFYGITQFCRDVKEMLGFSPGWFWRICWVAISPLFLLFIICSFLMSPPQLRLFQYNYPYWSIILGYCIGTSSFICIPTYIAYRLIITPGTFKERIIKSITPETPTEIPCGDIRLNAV

[1] = test system: serotonin 5-HT1 receptors; conditions: Rickli et al., 2016; cited from earlier work
D1-3 receptors = conditions: Rickli et al., 2016; cited from earlier work
healthy humans = conditions: cited from earlier work
5-HT2A receptor = 5-HT2A receptor (Homo sapiens, UniProt P28223); conditions: Rickli et al., 2016; cited from earlier work
Chain of 5-HT2A receptor (P28223 whole entry): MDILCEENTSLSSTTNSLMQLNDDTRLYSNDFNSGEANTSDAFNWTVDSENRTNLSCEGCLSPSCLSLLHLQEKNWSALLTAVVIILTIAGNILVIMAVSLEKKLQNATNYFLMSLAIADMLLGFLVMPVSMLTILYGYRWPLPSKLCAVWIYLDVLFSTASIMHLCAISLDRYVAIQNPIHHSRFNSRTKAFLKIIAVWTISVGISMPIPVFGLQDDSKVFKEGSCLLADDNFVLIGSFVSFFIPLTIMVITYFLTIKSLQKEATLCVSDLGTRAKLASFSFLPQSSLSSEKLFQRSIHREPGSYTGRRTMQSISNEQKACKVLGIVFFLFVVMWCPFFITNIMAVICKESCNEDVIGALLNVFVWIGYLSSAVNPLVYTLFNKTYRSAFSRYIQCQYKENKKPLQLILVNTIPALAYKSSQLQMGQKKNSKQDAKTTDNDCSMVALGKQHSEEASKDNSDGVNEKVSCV

healthy human subjects [2] = assay: Subjective effects Visual Analog Scales (VAS), LSD-MDMA clinical study; conditions: for peak subjective effects ratings of any drug effect (VAS): oral, mean of two healthy subjects; for bad drug effects (VAS): FIG. 3A; for ratings of being talkative (VAS): FIG. 8A; for wanting to be alone / with other people (VAS): FIGS. 10A and 10B
healthy human subjects [3] = assay: Adverse effects, list of complaints (LC) score, LSD-MDMA clinical study; conditions: 0.1 mg LSD, 100 mg MDMA or both; mean of two subjects; placebo 5
healthy human subjects [4] = conditions: two subjects; FIGS. 12, 13
humans = conditions: cited from earlier work
D2 receptors = D2 receptors (Homo sapiens, UniProt P14416); conditions: cited from earlier work
Chain of D2 receptors (P14416 whole entry): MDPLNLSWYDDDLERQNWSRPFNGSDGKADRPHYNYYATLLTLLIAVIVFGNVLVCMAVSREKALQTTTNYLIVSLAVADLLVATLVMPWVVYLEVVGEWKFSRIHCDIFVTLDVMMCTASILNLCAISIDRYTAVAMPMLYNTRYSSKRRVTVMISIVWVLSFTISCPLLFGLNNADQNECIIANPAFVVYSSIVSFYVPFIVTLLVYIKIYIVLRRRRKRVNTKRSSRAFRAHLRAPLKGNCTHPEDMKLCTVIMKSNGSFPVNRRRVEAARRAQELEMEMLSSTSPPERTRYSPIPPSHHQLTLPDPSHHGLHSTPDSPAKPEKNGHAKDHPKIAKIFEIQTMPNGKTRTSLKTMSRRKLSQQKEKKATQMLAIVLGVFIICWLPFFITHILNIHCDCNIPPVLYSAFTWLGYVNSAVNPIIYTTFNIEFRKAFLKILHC

[5] = 0.1 mg LSD, 100 mg MDMA or both, FIG. 2A
[6] = 0.1 mg LSD, 100 mg MDMA or both, two subjects
[7] = oral administration (Vizeli et al., 2017)

## CCN(CC)C(=O)[C@@H]1C=C2c3cccc4[nH]cc(c34)C[C@H]2N(C)C1 [LSD, lysergic acid diethylamide]
5-HT transporter (SERT)
  interaction with the SERT: does not interact with the SERT
[1]
  agonist potency at serotonin 5-HT1 receptors: potent agonists
D1-3 receptors
  stimulation of D1-3 receptors: stimulates D1-3 receptors
Healthy humans; 0.1 mg LSD (Holze et al., 2019a), range 0.3-1.0
  time of onset of the subjective response, any drug effect VAS (mean±SD): 0.7 ± 0.2 h
Healthy humans; 0.1 mg LSD (Holze et al., 2019a), range 5.3-12.8
  duration of subjective effects (mean±SD): 8.5 ± 2.0 h
Healthy humans; 0.1 mg LSD (Holze et al., 2019a), range 6.0-13.2
  time of offset of the subjective response, any drug effect VAS (mean±SD): 9.1 ± 2.0 h
Healthy humans; 0.1 mg LSD, 3 of 24 subjects (Dolder et al., 2017)
  subjects with bad drug effects (50% or more on a 0-100% scale at any time point): 12.5%
Healthy humans; 0.1 mg LSD, 7 of 24 subjects (Holze et al., 2019a)
  subjects with transient bad drug effects: 29%
Healthy humans; 0.1 mg dose (Dolder et al., 2017), range 5-14
  duration of LSD effects: 8.2 ± 2.1 h
Healthy humans; 0.2 mg LSD, 9 of 16 subjects (Dolder et al., 2017)
  subjects with bad drug effects (50% or more on a 0-100% scale at any time point): 56%
Healthy humans; 0.2 mg LSD, sixteen healthy humans (Schmid et al., 2015)
  subjects with marked anxiety: two
Healthy humans; 0.2 mg dose (Dolder et al., 2017), range 7-19.5
  duration of LSD effects: 11.6 ± 1.7 h
Healthy humans; LSD 0.1 mg vs MDMA 125 mg (Holze et al., 2019b)
  subjective response to LSD compared to MDMA: clearly more pronounced
Healthy humans; LSD (Holze et al., 2019a), range 1.6-4.3
  time to the subjective peak effect: 2.5 ± 0.6 h and 2.5 h
Healthy humans; oral administration
  start of LSD effect, on average: 42 min
Healthy humans; oral dosing formulation of LSD
  time after administration at which anxiety mostly occurs (peak effects): 1 to 4 h
5-HT2A receptor
  stimulation of the 5-HT2A receptor: potently stimulates
Healthy human subjects [2]; [5]
  peak subjective effects ratings of any drug effect (VAS): comparable peak subjective effects ratings
Healthy human subjects [2]; 0.1 mg LSD, 100 mg MDMA or both, two subjects, FIG. 2A
  duration of any drug effect (VAS): lasted longer than those of MDMA
Healthy human subjects [2]; 0.1 mg LSD, 100 mg MDMA or both, two subjects, FIG. 2B
  good drug effects duration (VAS): lasted longer
Healthy human subjects [2]; [6]
  bad drug effects (VAS): minor subjective bad drug effects
Healthy human subjects [2]; 0.1 mg LSD, 100 mg MDMA or both, two subjects, FIG. 3B
  anxiety (VAS): moderate anxiety at drug effect onset
Healthy human subjects [2]; 0.1 mg LSD, two subjects, FIG. 4B
  nausea (VAS): moderate nausea at drug effect onset
Healthy human subjects [2]; two subjects
  ratings of openness (VAS): lower increases in openness
  ratings of being talkative (VAS): reduces talkative
  wanting to be alone / with other people (VAS): wanted to be with others and not alone
Healthy human subjects [2]; two subjects, FIG. 5A
  changes in visual perception (VAS): comparable changes in visual perception
Healthy human subjects [2]; two subjects, FIG. 5B
  synaesthesias (sounds influencing visual perception) (VAS): comparable changes
Healthy human subjects [2]; two subjects, FIG. 6A
  changes in the perception of time (VAS): comparable changes in the perception of time
Healthy human subjects [2]; two subjects, FIG. 11
  degree of intro or extroversion (VAS): no effect
Healthy human subjects [3]
  Total average LC scores: 18
Healthy human subjects [4]
  alterations of consciousness on the 5D-ASC main and subscales: comparable degrees of alterations of consciousness

## CNC(C)Cc1ccc2c(c1)OCO2 (stereo not shown) [MDMA, 3,4-methylenedioxymethamphetamine]
humans; MDMA (Vizeli et al., 2017)
  duration of the subjective effect: 4.2 ± 1.3 h
humans; [7]
  onset of the MDMA effect (mean±SD): 33 ± 24 min and 33 min
  time to peak effect after MDMA administration: 1.6 ± 0.8 h and 1.6 h
Healthy human subjects [2]; [5]
  peak subjective effects ratings of any drug effect (VAS): comparable peak subjective effects ratings
Healthy human subjects [2]; [6]
  bad drug effects (VAS): moderately increased subjective bad drug effect ratings
Healthy human subjects [2]; two subjects
  ratings of openness (VAS): increases ratings of openness
  ratings of being talkative (VAS): increases ratings of being talkative
  wanting to be alone / with other people (VAS): wanted to be with others and not alone
Healthy human subjects [2]; two subjects, FIG. 9A
  ratings of trust (VAS): increases feelings of trust
Healthy human subjects [3]
  Total average LC scores: 12

## COc1cc(CCN)cc(OC)c1OC [mescaline]
D2 receptors
  affinity for D2 receptors: no affinity
[1]
  agonist potency at serotonin 5-HT1 receptors: low potency

## CN(C)CCc1c[nH]c2cccc(O)c12 [psilocin]
5-HT transporter (SERT)
  interaction with the SERT: inhibits the 5-HT transporter
[1]
  agonist potency at serotonin 5-HT1 receptors: potent agonists
